# Columns and labels:
# FVB mice = experiment: Bone mineral density by dual energy X-ray absorptiometry in FVB mice; type: in vivo; conditions: HNG 1 μg/mice/day for four weeks, vs vehicle
# Method: Areal bone mineral density (BMD; BMC/cm^2) and BMC were measured by dual energy X-ray absorptiometry (DXA) using the Lunar PIXImus mouse densitometer (Wipro GE Healthcare, Madison, Wisc.). Ex vivo measurements were taken from FVB mice treated with Dexa and HNG for four weeks (for details see methods and materials). The measurements of left femur and tibia were performed on excised bones placed on a 1-cm-thick Plexiglas™ table. All bones compared were measured in the same scan (high-resolution scan with line spacing set at 0.01 cm). n=9-10/animals/group.
# In the light of the above findings where it was observed rescuing effects of HNG (S14G) on bone growth both in vitro and in vivo, it was analyzed whether HNG (S14G) has the capacity to regulate BMD. […] Trabecular BMD in tibia (mg/cm^3) of four-week old FVB mice treated for 4 weeks was measured by using DEXA (see protocol in material and methods).
# NMRI nude mice = experiment: Bone growth (X-ray) in tumor-xenografted NMRI nude mice; type: in vivo; conditions: HNG 1 μg/mice i.p. + bortezomib 1 mg/kg i.p. days 1, 4, 8, 11, day 13
# Method: Male NMRI nu/nu mice (B&K Scanbur, Sweden or Taconic, Denmark) were xenografted at the age of 4 weeks (BW 18-25 g). The mice were anesthetized with 2% fluothane (Zeneca Ltd, Macclesfield, UK) supplemented with 50% N2O in oxygen. Tumor cells (NB (SH-SY5Y; 20×10^6 cells/side) or MB (D-283; 10×10^6 cells/side) in 0.1 ml medium) were implanted s.c. in the hindlegs of the animal using a 23 G needle. Tumors were measured every other day with a digital caliper, starting when they were palpable. At a tumor volume of 0.1 ml or 0.15 ml the animals were randomized into groups (1. Vehicle without tumors; 2. Vehicle with tumors; 3. HNG (S14G; 1 μg/mice); 4. CT (bortezomib; 0.8 mg/kg or 1 mg/kg); 5. HNG (S14G) 1 μg/mice+CT (bortezomib; 0.8 mg/kg or 1 mg/kg), stratified by their bodyweight and treatment started. Treatment regime was the same as in clinical settings with 2 injections/week; 2 weeks treatment (see FIG. 1, Group 1). HNG (S14G) was injected 40 min before the CT (bortezomib) injection. Tumor volume was calculated by the formula 0.44×length×width×width (Wassberg, Pahlman et al. 1997). […] The animal weight and general appearance were recorded every day throughout the experiments. […] After fixation, femur and tibia were measured with digital calipers and decalcified in 5% EDTA and then paraffin embedded. […]
# growth plate cartilage = experiment: Growth plate histology, resting and proliferating chondrocyte zone (R+P); type: in vivo, mice; conditions: four weeks
# Method: Four weeks old mice (female, FVB) were injected with Dexa dissolved in saline ([…]) subcutaneously in the neck every day for four week. Whereas, HNG (S14G) dissolved in saline (1 μg/mice) was injected intra-peritoneally, 45 minutes prior to the Dexa injection for four weeks, for details see materials and methods. The femur and tibia bones were dissected out and fixed in 4% formalin for 24 hrs, followed by decalcification in 10% EDTA and embedded in paraffin blocks. Five-micrometer-thick sections were prepared from these paraffin blocks. The sections were prepared from the tibial growth plate and stained with Van Gieson. Digital images of stained sections were collected using a Nikon Eclipse E800 microscope (Nikon Corp., Tokyo, Japan) equipped with an Olympus DP70 digital camera (Olympus Sverige AB, Solna, Sweden).
# Since a positive effect of HNG (S14G) on bone growth was identified, different zones of chondrocytes were analyzed (resting, proliferative and hypertrophic) in growth plate cartilage, to identify visible changes in these zones. […] These micropgraphas also explain the longitudinal bone growth promoting effects by HNG (S14G) alone or in combination with Dexa.
substance,measurement,setting,value
S14G-HN (MAPRGFSCLLLLTGEIDLPVKRRA) [HNG (S14G)],trabecular BMD in tibia,FVB mice,trend towards increased BMD
same,rescue of bortezomib-induced impairment of linear bone growth,NMRI nude mice; medulloblastoma xenograft,able to rescue and prevent the undesired side effects of CT (bortezomib) on linear bone growth
same,rescue of bortezomib-induced impairment of linear bone growth,NMRI nude mice; neuroblastoma xenograft,able to rescue and prevent the undesired side effects of CT (bortezomib) on linear bone growth
same,size of resting and proliferating chondrocyte zone (R+P),"growth plate cartilage; HNG (S14G)/Dexa, vs Dexa only",larger than in the Dexa only treated group
same,size of resting and proliferating chondrocyte zone (R+P),"growth plate cartilage; HNG alone 1 μg/mice, vs all other groups",appears to be larger

# Source: patent US20130053323A1, “METHODS AND USE RELATED TO HUMANIN AND HUMANIN-LIKE PEPTIDES” (priority 2009, published 2013)
